Two molecules from ChEMBL document CHEMBL1135000, “Stereoselective and improved syntheses and anticancer testing of 3'-O-silatranylthymidines” (Bioorg Med Chem Lett, 2002) can be followed below.

Assay [1] relates to Hepatitis B virus. As to the kind of experiment: Cytotoxicity when tested for inhibition against hepatitis B virus in HBV-producing human liver cell line 2.2.15. Type of assay: functional. As to conditions: HepG2 2.2.15.
The test system of assay [2] is Hepatitis B virus. The assay can be described thus: Effective concentration required for inhibition against hepatitis B virus in HBV-producing human liver cell line 2.2.15. It is filed as functional, organism-based. As to conditions: HepG2 2.2.15.
Assay [3] has as its system Human alphaherpesvirus 2. The assay can be described thus: Inhibition against herpes simplex virus type 2, measured by a cytopathic effect inhibition assay with human foreskin fibroblast (HFF) cells infected with HSV; Inactive. It is filed as functional, organism-based. As to conditions: Human alphaherpesvirus 2, HFF. On the technique in general: Protection from cytopathic effect is a common read-out in antiviral testing.

Assay [4] concerns Human alphaherpesvirus 1. As to the kind of experiment: Inhibition against herpes simplex virus type 1, measured by a cytopathic effect inhibition assay with human foreskin fibroblast (HFF)cells infected with HSV; Inactive. The following applies: Human alphaherpesvirus 1, HFF. It is filed as functional, organism-based.

Some results are limits rather than exact numbers.

Broadly, the CC50 is the concentration that lowers cell viability or growth by half. A low value points to greater toxicity to the cells. What is called EC50 is the concentration that produces a half-maximal response. Low readings indicate greater potency, high ones weaker potency. In turn, `Cc1cn([C@H]2C[C@H](O[Si]34OCCN(CCO3)CCO4)[C@@H](CO)O2)c(=O)[nH]c1=O` showed a CC50 in assay [1] of 1290 µM. Moreover, the EC50 in assay [2] was > 10 µM.
In the case of `Cc1cn([C@H]2C[C@H](O[Si]34OC(C)CN(CC(C)O3)CC(C)O4)[C@@H](CO)O2)c(=O)[nH]c1=O` (some centres undefined), the EC50 in assay [3] and in assay [4] was > 100 µg/mL throughout.
